The record followed here is patent US9199963B2, “Heterocyclic compound” (Takeda Pharmaceutical Company Limited, priority 2013, dated 2015).

For orientation: inhibition means the drop in the measured response relative to a control, in per cent.

Assay [1] concerns the target T1, human MCH receptor 1 (MCHR1) (Homo sapiens, UniProt Q99705).
T1 construct: expressed in transfected cells; host or cells: CHO cell clone 57 (described in WO01/82925); membrane fraction
Briefly: Human MCH receptor 1 (MCHR1) competitive inhibitory activity using binding assay. The settings on record: test compound 0.1 μM; [125I]-MCH (4-19); human MCHR1-expressing CHO cellular membrane fraction; read-out: Binding inhibition rate % (0.1 μM). As to the method:
Determination of Human MCH Receptor 1 (MCHR1) Competitive Inhibitory Activity of Test Compound Using Binding Assay
1. Preparation of Membrane Fraction
In phosphate buffered saline (pH 7.4) supplemented with 5 mM EDTA (ethylenediaminetetraacetic acid) were respectively suspended human MCHR1-expressing CHO cells (1×10^8 cells) and centrifuged. Homogenate buffer (10 mL, 10 mM NaHCO3, 5 mM EDTA, pH 7.5, 0.5 mM PMSF (phenylmethylsulfonyl fluoride), 20 mg/L leupeptin, 4 mg/L E-64, 1 mg/L pepstatin A) was added to the pellets of the cells and, using Polytron Homogenizer, the mixture was homogenated. The supernatant obtained after centrifugation at 400×g for 10 min was further centrifuged at 100,000×g for 1 hr to give precipitate of the membrane fraction. The precipitate was suspended in 2 mL of assay buffer [20 mM Tris-HCl (pH 7.5), 5 mM EDTA, 0.5 mM PMSF, 20 mg/L leupeptin, 4 mg/L E-64, 1 mg/L pepstatin A]. The membrane fractions were suspended in assay buffer to a protein concentration of 2 mg/mL, and after dispensing, preserved at −80° C. and used upon thawing each time when in use.
The MCHR1 ligand binding inhibitory activity of the test compound was determined as follows.
The mixture was reacted with stirring at room temperature for 1 hr, and the plate was set on FilterMate Harvester (PerkinElmer). […] The glass filter plate was dried, MicroScint 0 (PerkinElmer) was added at 25 μL/well, and the resulting radioactivity was measured by TopCount liquid scintillation counter (PerkinElmer). The binding inhibition rate of the test compound was calculated by the following formula. Binding inhibition(%)=100−(radioactivity upon addition of test compound and hot MCH−radioactivity upon addition of cold MCH and hot MCH solution)/(radioactivity upon addition of DMSO solution and hot MCH−radioactivity upon addition of cold MCH and hot MCH solution)×100

Another assay addresses T2, human MCHR1 (Homo sapiens, UniProt Q99705).
T2 construct: expressed in transfected cells; host or cells: CHO dhfr- cells, clone #4
Briefly: MCH receptor 1 antagonistic activity using Ca2+ mobilization assay. Particulars: test compound 0.1 μM; ligand MCH (4-19) 2 nM; human MCHR1-expressing CHO cells (clone #4); read-out: Inhibition rate % (0.1 μM). Format: cell-based. The method, then:
Measurement of MCH Receptor 1 Antagonistic Activity of Test Compound Using Ca^2+ Mobilization Assay
Using an expression vector plasmid introduced with human MCHR1 gene for expression in animal cells, human MCHR1 gene was introduced into CHO cells (CHO dhfr^−) by Lipofectamine LTX (Invitrogen). The cells were cultured in selection MEMα medium [445 mL of MEMα medium without nucleic acid and added with 5 mL of Penicillin-Streptomycin (Invitrogen) and 50 mL of dialyzed fetal bovine serum]. Colony 24 clones grown in the selection medium, which were human MCHR1 gene-expressing CHO cell candidates, were selected. […] An integrated dispensing function fluorometer (CellLux, PerkinElmer) was used for Ca^2+ mobilization assay. […] The medium was removed, and the cells were washed with phosphate buffered saline (PBS). A Ca^2+ indicator dye reagent (DOJINDO LABORATORIES, Ca screening no-wash kit Fluo4) was added at 100 μL/well, and the dye was allowed to penetrate into the cells for 30 min in an incubator at 5% CO2, 37° C. The plate was set on a plate reader. First, a test compound solution diluted with an assay buffer [10 mM HEPES (pH 7.4), 1× assay buffer containing 0.1% BSA (DOJINDO LABORATORIES, attached to Ca screening no-wash kit Fluo4)] or DMSO solution was added at 50 μL/well, and then ligand MCH (4-19) peptide (final concentration 2 nM) diluted with assay buffer or DMSO was added at 50 μL/well, during which changes in intracellular fluorescence were measured at 2 second intervals.

Each structure is given as a SMILES string.

T2 sequence (Q99705 whole entry): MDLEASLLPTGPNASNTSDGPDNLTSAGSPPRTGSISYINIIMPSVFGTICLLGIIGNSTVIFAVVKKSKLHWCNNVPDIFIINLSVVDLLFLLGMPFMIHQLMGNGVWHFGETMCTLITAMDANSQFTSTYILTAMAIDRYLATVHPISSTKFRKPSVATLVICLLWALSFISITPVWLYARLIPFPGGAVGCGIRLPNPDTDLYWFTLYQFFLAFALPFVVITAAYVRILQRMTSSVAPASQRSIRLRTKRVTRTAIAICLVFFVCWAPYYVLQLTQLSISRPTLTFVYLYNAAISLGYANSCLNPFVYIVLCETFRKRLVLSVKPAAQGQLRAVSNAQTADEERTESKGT
T1 sequence (Q99705 whole entry): as above

For `CCn1nc2ccc(-n3ccc(OCc4ccc(Cl)cc4)cc3=O)cc2c1C` [Example 2, 4-[(4-chlorobenzyl)oxy]-1-(2-ethyl-3-methyl-2H-indazol-5-yl)pyridin-2(1H)-one], the inhibition at 0.1 µM in assay [1] came out at 43%; on human MCHR1, 73%.
Regarding `CCCn1nc2ccc(-n3ccc(OCc4ccc(Cl)cc4)cc3=O)cc2c1C` [Example 3, 4-[(4-chlorobenzyl)oxy]-1-(3-methyl-2-propyl-2H-indazol-5-yl)pyridin-2(1H)-one], in assay [1], the inhibition at 0.1 µM turned out to be 37%.
With `Cc1c2cc(-n3ccc(OCc4ccc(Cl)cc4)cc3=O)ccc2nn1C1CC1` [Example 5, 4-[(4-chlorobenzyl)oxy]-1-(2-cyclopropyl-3-methyl-2H-indazol-5-yl)pyridin-2(1H)-one], the inhibition at 0.1 µM in assay [1] is 78%; on human MCHR1, 86%.
In the same order, the values of `Cc1c2cc(-n3ccc(OCc4ccccc4)cc3=O)ccc2nn1C1CC1` [Example 7, 4-(benzyloxy)-1-(2-cyclopropyl-3-methyl-2H-indazol-5-yl)pyridin-2(1H)-one] are 44% and 66%.
As to `Cc1c2cc(-n3ccc(OCc4ccc(Cl)s4)cc3=O)ccc2nn1C1CC1` [Example 8, 4-[(5-chlorothiophen-2-yl)methoxy]-1-(2-cyclopropyl-3-methyl-2H-indazol-5-yl)pyridin-2(1H)-one], the inhibition at 0.1 µM in assay [1] worked out at 68%; on human MCHR1, 55%.
As for `Cc1c2cc(-n3ccc(OCc4ccccc4)cc3=O)ccc2nn1C` [Example 9, 4-(benzyloxy)-1-(2,3-dimethyl-2H-indazol-5-yl)pyridin-2(1H)-one], in assay [1], the inhibition at 0.1 µM was determined as 36%.
With `Cc1c2cc(-n3ccc(OCc4ccc(C(F)(F)F)s4)cc3=O)ccc2nn1C` [Example 10, 1-(2,3-dimethyl-2H-indazol-5-yl)-4-{[5-(trifluoromethyl)thiophen-2-yl]methoxy}pyridin-2(1H)-one], the inhibition at 0.1 µM in assay [1] turned out to be 39%; on human MCHR1, 51%.
In the case of `Cc1c2cc(-n3ccc(OCc4cccc(Cl)c4)cc3=O)ccc2nn1C` [Example 12, 4-[(3-chlorobenzyl)oxy]-1-(2,3-dimethyl-2H-indazol-5-yl)pyridin-2(1H)-one], the values for the inhibition at 0.1 µM (in assay [1]; on human MCHR1) were 42% and 38%, respectively.
In the case of `Cc1c2cc(-n3ccc(OCc4cc5ccccc5o4)cc3=O)ccc2nn1C` [Example 16, 4-(1-benzofuran-2-ylmethoxy)-1-(2,3-dimethyl-2H-indazol-5-yl)pyridin-2(1H)-one], the inhibition at 0.1 µM came to 47% in assay [1] and 57% at human MCHR1.
`Cc1c2cc(-n3ccc(OCc4ccc(Cl)cn4)cc3=O)ccc2nn1C1CC1` [Example 18, 4-[(5-chloropyridin-2-yl)methoxy]-1-(2-cyclopropyl-3-methyl-2H-indazol-5-yl)pyridin-2(1H)-one]: the values for the inhibition at 0.1 µM (in assay [1]; on human MCHR1) were 45% and 63%, respectively.
Taken in the same sequence, the figures for `Cc1c2cc(-n3ccc(OCc4ccc(Br)cn4)cc3=O)ccc2nn1C` [Example 23, 4-[(5-bromopyridin-2-yl)methoxy]-1-(2,3-dimethyl-2H-indazol-5-yl)pyridin-2(1H)-one] were 57% and 77%.
Taken in the same sequence, the figures for `Cc1c2cc(-n3ccc(OCc4ccc(Br)s4)cc3=O)ccc2nn1C` [Example 27, 4-[(5-bromothiophen-2-yl)methoxy]-1-(2,3-dimethyl-2H-indazol-5-yl)pyridin-2(1H)-one] were 60% and 92%.
Take `Cc1c2cc(-n3ccc(OCc4ccc(Br)cn4)cc3=O)ccc2nn1C1CC1` [Example 28, 4-[(5-bromopyridin-2-yl)methoxy]-1-(2-cyclopropyl-3-methyl-2H-indazol-5-yl)pyridin-2(1H)-one]: the inhibition at 0.1 µM in assay [1] stood at 68%; on human MCHR1 it was 93%.
Take `Cc1c2cc(-n3ccc(OCc4nc(Br)cs4)cc3=O)ccc2nn1C` [Example 30, 4-[(4-bromo-1,3-thiazol-2-yl)methoxy]-1-(2,3-dimethyl-2H-indazol-5-yl)pyridin-2(1H)-one]: the inhibition at 0.1 µM in assay [1] came out at 34%; at human MCHR1 it was 89%.
`Cc1c2c(F)c(-n3ccc(OCc4ccc(Cl)cc4)cc3=O)ccc2nn1C` [Example 32, 4-[(4-chlorobenzyl)oxy]-1-(4-fluoro-2,3-dimethyl-2H-indazol-5-yl)pyridin-2(1H)-one]: in assay [1], the inhibition at 0.1 µM is 54%.
On to `Cc1c2cc(-n3ccc(OCc4nc(C(F)(F)F)cs4)cc3=O)ccc2nn1C1CC1` [Example 33, 1-(2-cyclopropyl-3-methyl-2H-indazol-5-yl)-4-{[4-(trifluoromethyl)-1,3-thiazol-2-yl]methoxy}pyridin-2(1H)-one], for which the inhibition at 0.1 µM stood at 76% in assay [1] and 96% on human MCHR1.
Turning to `CCn1nc2ccc(-n3ccc(OCc4nc(C(F)(F)F)cs4)cc3=O)cc2c1C` [Example 36, 1-(2-ethyl-3-methyl-2H-indazol-5-yl)-4-{[4-(trifluoromethyl)-1,3-thiazol-2-yl]methoxy}pyridin-2(1H)-one], the inhibition at 0.1 µM was found to be 37% in assay [1] and 83% on human MCHR1.
Taken in the same sequence, the figures for `Cc1c2cc(-n3ccc(OCc4nc(C(F)(F)F)cs4)cc3=O)ccc2nn1C` [Example 38, 1-(2,3-dimethyl-2H-indazol-5-yl)-4-{[4-(trifluoromethyl)-1,3-thiazol-2-yl]methoxy}pyridin-2(1H)-one] were 45% and 78%.
In the same order, the values of `Cc1c2cc(-n3ccc(OCc4csc(C(F)(F)F)n4)cc3=O)ccc2nn1C` [Example 39, 1-(2,3-dimethyl-2H-indazol-5-yl)-4-{[2-(trifluoromethyl)-1,3-thiazol-4-yl]methoxy}pyridin-2(1H)-one] are 33% and 71%.
In the same order, the values of `Cc1c2cc(-n3ccc(OCc4cc(C(F)(F)F)cs4)cc3=O)ccc2nn1C` [Example 41, 1-(2,3-dimethyl-2H-indazol-5-yl)-4-{[4-(trifluoromethyl)thiophen-2-yl]methoxy}pyridin-2(1H)-one] are 55% and 70%.
With `Cc1c2cc(-n3ccc(OCc4ccc(F)cc4)cc3=O)ccc2nn1C` [Example 42, 1-(2,3-dimethyl-2H-indazol-5-yl)-4-[(4-fluorobenzyl)oxy]pyridin-2(1H)-one], the inhibition at 0.1 µM in assay [1] is 46%; at human MCHR1, 65%.
In the same order, the values of `Cc1c2cc(-n3ccc(OCc4cc(C(F)(F)F)cs4)cc3=O)ccc2nn1C1CC1` [Example 43, 1-(2-cyclopropyl-3-methyl-2H-indazol-5-yl)-4-{[4-(trifluoromethyl)thiophen-2-yl]methoxy}pyridin-2(1H)-one] are 71% and 72%.
In the same order, the values of `Cc1c2cc(-n3ccc(OCc4ccc(C(F)(F)F)s4)cc3=O)ccc2nn1C1CC1` [Example 45, 1-(2-cyclopropyl-3-methyl-2H-indazol-5-yl)-4-{[5-(trifluoromethyl)thiophen-2-yl]methoxy}pyridin-2(1H)-one] are 49% and 43%.
